Assay results as given in ChEMBL document CHEMBL3596151, “Elucidation of the in vitro and in vivo activities of bridged 1,2,4-trioxolanes, bridged 1,2,4,5-tetraoxanes, tricyclic monoperoxides, silyl peroxides, and hydroxylamine derivatives against Schistosoma mansoni” (Bioorg Med Chem, 2015).
Activity calls are given as the source filed them. No cut-off for these calls is given here.

Columns and labels:
Schistosoma mansoni [1] = assay: Antischistosomal activity against newly transformed Schistosoma mansoni cercariae assessed as decrease in viability after 72 hrs by microscopic analysis; assay type: functional, organism-based
Schistosoma mansoni [2] = assay: Antischistosomal activity against adult Schistosoma mansoni assessed as decrease in viability after 72 hrs by microscopic analysis; assay type: functional, organism-based
L6 = assay: Cytotoxicity against rat L6 cells assessed as decrease in cell viability after 72 hrs by resazurin dye based fluorescence analysis; details: for IC50: Rattus norvegicus, L6, 72 h; for Activity: rat, l6, 72 h
[3] = Selectivity index, ratio of IC50 for rat L6 cells to IC50 for adult Schistosoma mansoni
Schistosoma mansoni [4] = assay: Antischistosomal activity against Schistosoma mansoni strain Liberian cercariae infected in NMRI mouse assessed as reduction of worm burden in portal and mesenteric veins and liver at 400 mg/kg, po treated after 49 days of infection measured 16 to 21 days post treatment; assay type: functional
Schistosoma mansoni [5] = assay: Antischistosomal activity against newly transformed Schistosoma mansoni cercariae assessed as decrease in viability at 12.5 ug/ml after 72 hrs by microscopic analysis; assay type: functional, organism-based
Schistosoma mansoni [6] = assay: Antischistosomal activity against adult Schistosoma mansoni assessed as decrease in viability at 25 ug/ml after 72 hrs by microscopic analysis; assay type: functional, organism-based

| SMILES | IC50 (Schistosoma mansoni [1]) [µM] | IC50 (Schistosoma mansoni [2]) [µM] | IC50 (L6) [µM] | Ratio IC50 [3] | inhibition in vivo at 400 mg/kg (Schistosoma mansoni [4]) [%] | inhibition (Schistosoma mansoni [5]) | Activity (L6) | inhibition (Schistosoma mansoni [6]) |
| --- | --- | --- | --- | --- | --- | --- | --- | --- |
| CC1[C@]2(C)OO[C@@]1(C13CC4CC(CC(C4)C1)C3)OO2 (some centres undefined) | 4 | 3.9 | < 0.4 | <0.1 | – | – | – | – |
| CC(=O)[C@]1(Cc2ccc(Cl)cc2)CC[C@]2(C)OO[C@@]1(C)O2 | 2.8 | 4.2 | 2.7 | 1.3 | 42.9 | – | – | – |
| CCCC[C@]1(C(C)=O)CCC2(C)OOC1(C)O2 (single isomer, unassigned) | – | 12.2 | – | – | – | inactive | Non-toxic | – |
| CC(=O)CCC1(Cc2ccc(Cl)cc2)[C@]2(C)OO[C@@]1(C)OO2 (some centres undefined) | 3.5 | 15.4 | – | – | – | – | Non-toxic | – |
| CC[C@]12C[C@](C34CC5CC(CC(C5)C3)C4)(OO1)OO2 | 1.8 | 2 | < 0.4 | <0.2 | – | – | – | – |
| CC(C)(C)C1CCC2(CC1)OO[Si](C)(C)CC[Si](C)(C)OO2 | 4 | – | – | – | – | – | Non-toxic | inactive |
| CC(=O)CCC1(Cc2ccc(C)cc2)[C@]2(C)OO[C@@]1(C)OO2 (some centres undefined) | 5.2 | 9.8 | 2.5 | 0.3 | – | – | – | – |
| CC(=O)[C@]1(Cc2ccc([N+](=O)[O-])cc2)CC[C@]2(C)OO[C@@]1(C)O2 | 5.7 | 7 | 22.7 | 1.7 | – | – | – | – |
| CC[C@]12OO[C@@]3(CC(C)C)OC(C)(CCC31)O2 | 2.7 | 4.4 | 24.4 | 5.7 | 26.7 | – | – | – |
| CC(C)C[C@]12OO[C@](C)(OO1)C2C12CC3CC(CC(C3)C1)C2 (some centres undefined) | 0.9 | 1.8 | 1 | 0.5 | – | – | – | – |
| CC(C)C[C@@]12OO[C@]3(C)OC(C)(CCC31)O2 | 2 | 2 | 4.9 | 3 | 0 | – | – | – |
| C[Si]1(C)CC[Si](C)(C)OOC2(CCCCCCCCCCC2)OO1 | 7.2 | – | – | – | – | – | Non-toxic | inactive |
| CC(=O)[C@@]1(Cc2ccccc2)CC[C@]2(C)OO[C@@]1(C)O2 | 5.6 | 10.3 | – | – | – | – | Non-toxic | – |
| CC(=O)[C@]1(Cc2ccccc2)CC[C@]2(C)OO[C@@]1(C)O2 | 0.4 | 1.8 | 5.4 | 2.9 | 6.2 | – | – | – |
| CC(=O)CCC1(Cc2ccccc2)[C@]2(C)OO[C@@]1(C)OO2 (some centres undefined) | 1.6 | 10.9 | – | – | – | – | Non-toxic | – |
| CC(=O)[C@@]1(Cc2ccc(Cl)cc2)CC[C@]2(C)OO[C@@]1(C)O2 | 3.2 | 11.2 | – | – | – | – | Non-toxic | – |
| CC(=O)[C@@]1(Cc2ccc([N+](=O)[O-])cc2)CC[C@]2(C)OO[C@@]1(C)O2 | 7.7 | 22.8 | – | – | – | – | Non-toxic | – |
| CC(=O)[C@@]1(Cc2ccc(C)cc2)CC[C@]2(C)OO[C@@]1(C)O2 | 12.2 | 7.4 | 15.3 | 7.4 | 9.9 | – | – | – |
| CC(=O)[C@]1(Cc2ccc(C)cc2)CC[C@]2(C)OO[C@@]1(C)O2 | – | 10 | – | – | – | inactive | Non-toxic | – |
| C[C@]12C[C@](C34CC5CC(CC(C5)C3)C4)(OO1)OO2 | 1.3 | 2 | < 0.4 | <0.2 | – | – | – | – |
| CC(=O)[C@@]1(Cc2ccc(Br)cc2)CC[C@]2(C)OO[C@@]1(C)O2 | 2.2 | 4.2 | 8.1 | 1.6 | 44.3 | – | – | – |
| CC(=O)[C@]1(Cc2ccc(Br)cc2)CC[C@]2(C)OO[C@@]1(C)O2 | 6.2 | 6.6 | 7.3 | 1.1 | – | – | – | – |
| CC(=O)CCC1(Cc2ccc(Br)cc2)[C@]2(C)OO[C@@]1(C)OO2 (some centres undefined) | 1.3 | 8.4 | 2.5 | 0.4 | – | – | – | – |
